Holding throughout (type): in vivo
Assay [1] deals with Puccinia recondita f. sp. tritici. Nature of the assay: Test C: wheat leaf rust, spray the day after inoculation of wheat seedlings.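 Note: Curative spray on infected wheat seedlings with visual rating 5 days later.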 As to conditions: Puccinia recondita, 120 h, wheat seedlings inoculated, sprayed the following day, rated after 5 days, read-out: Percentage Disease Control Test C. From the text:
General protocol for preparing test suspensions for Tests A-G: the test compounds were first dissolved in acetone in an amount equal to 11% of the final volume and then suspended at the desired concentration (in ppm) in acetone and purified water (50/50 mix by volume) containing 250 ppm of the surfactant Trem® 014 (polyhydric alcohol esters). The resulting test suspensions were then used in Tests A-G. Spraying a 200 ppm test suspension to the point of run-off on the test plants was the equivalent of a rate of 800 g/ha. Wheat seedlings were inoculated with a spore suspension of Puccinia recondita f. sp. tritici (the causal agent of wheat leaf rust) and incubated in a saturated atmosphere at 20° C. for 24 h. The following day, the test suspension was sprayed to the point of run-off on the wheat seedlings and then moved to a growth chamber at 20° C. for 5 days, after which time disease ratings were visually made. Results for Tests A-G are given in Table A. In the Table, a rating of 100 indicates 100% disease control and a rating of 0 indicates no disease control (relative to the controls). A dash (-) indicates no test results. All results are for 200 ppm except where followed by an “*”, which indicates 40 ppm.

The subject of assay [2] is Septoria tritici. Kind of assay: Test E: wheat leaf blotch, preventive spray on wheat seedlings. As to conditions: Zymoseptoria tritici, 456 h, wheat seedlings sprayed to run-off, inoculated next day, rated after 48 h + 19 days, read-out: Percentage Disease Control Test E. An excerpt:
General protocol for preparing test suspensions for Tests A-G: the test compounds were first dissolved in acetone in an amount equal to 11% of the final volume and then suspended at the desired concentration (in ppm) in acetone and purified water (50/50 mix by volume) containing 250 ppm of the surfactant Trem® 014 (polyhydric alcohol esters). The resulting test suspensions were then used in Tests A-G. Spraying a 200 ppm test suspension to the point of run-off on the test plants was the equivalent of a rate of 800 g/ha. The test suspension was sprayed to the point of run-off on wheat seedlings. The following day the seedlings were inoculated with a spore suspension of Septoria tritici (the causal agent of wheat leaf blotch) and incubated in a saturated atmosphere at 24° C. for 48 h, and then moved to a growth chamber at 20° C. for 19 days, after which time disease ratings were visually made. Results for Tests A-G are given in Table A. In the Table, a rating of 100 indicates 100% disease control and a rating of 0 indicates no disease control (relative to the controls). A dash (-) indicates no test results. All results are for 200 ppm except where followed by an “*”, which indicates 40 ppm.

The test system of assay [3] is Alternaria solani. Kind of assay: Test G: tomato early blight, preventive spray on tomato seedlings. The settings on record: Alternaria solani, topical, 168 h, tomato seedlings sprayed to run-off, inoculated next day, rated after 48 h + 5 days, read-out: Percentage Disease Control Test G. From the text:
General protocol for preparing test suspensions for Tests A-G: the test compounds were first dissolved in acetone in an amount equal to 11% of the final volume and then suspended at the desired concentration (in ppm) in acetone and purified water (50/50 mix by volume) containing 250 ppm of the surfactant Trem® 014 (polyhydric alcohol esters). The resulting test suspensions were then used in Tests A-G. Spraying a 200 ppm test suspension to the point of run-off on the test plants was the equivalent of a rate of 800 g/ha. The test suspension was sprayed to the point of run-off on tomato seedlings. The following day the seedlings were inoculated with a spore suspension of Alternaria solani (the causal agent of tomato early blight) and incubated in a saturated atmosphere at 27° C. for 48 h, and then moved to a growth chamber at 24° C. for 5 days, after which time disease ratings were visually made. Results for Tests A-G are given in Table A. In the Table, a rating of 100 indicates 100% disease control and a rating of 0 indicates no disease control (relative to the controls). A dash (-) indicates no test results. All results are for 200 ppm except where followed by an “*”, which indicates 40 ppm.

Assay [4] has as its system Erysiphe graminis f. sp. tritici. Nature of the assay: Test A: wheat powdery mildew, preventive spray on wheat seedlings. The settings on record: Blumeria graminis, 192 h, wheat seedlings sprayed to run-off, inoculated next day, rated after 8 days, 100 = 100% disease control, 0 = no control, read-out: Percentage Disease Control Test A. An excerpt:
General protocol for preparing test suspensions for Tests A-G: the test compounds were first dissolved in acetone in an amount equal to 11% of the final volume and then suspended at the desired concentration (in ppm) in acetone and purified water (50/50 mix by volume) containing 250 ppm of the surfactant Trem® 014 (polyhydric alcohol esters). The resulting test suspensions were then used in Tests A-G. Spraying a 200 ppm test suspension to the point of run-off on the test plants was the equivalent of a rate of 800 g/ha. The test suspension was sprayed to the point of run-off on wheat seedlings. The following day the seedlings were inoculated with a spore dust of Erysiphe graminis f. sp. tritici, (the causal agent of wheat powdery mildew) and incubated in a growth chamber at 20° C. for 8 days, after which time disease ratings were visually made. Results for Tests A-G are given in Table A. In the Table, a rating of 100 indicates 100% disease control and a rating of 0 indicates no disease control (relative to the controls). A dash (-) indicates no test results. All results are for 200 ppm except where followed by an “*”, which indicates 40 ppm.

Assay [5] deals with Puccinia recondita f sp. tritici. Nature of the assay: Test B: wheat leaf rust, preventive spray on wheat seedlings. The settings on record: Puccinia recondita, 192 h, wheat seedlings sprayed to run-off, inoculated next day, rated after 24 h + 7 days, read-out: Percentage Disease Control Test B. From the text:
General protocol for preparing test suspensions for Tests A-G: the test compounds were first dissolved in acetone in an amount equal to 11% of the final volume and then suspended at the desired concentration (in ppm) in acetone and purified water (50/50 mix by volume) containing 250 ppm of the surfactant Trem® 014 (polyhydric alcohol esters). The resulting test suspensions were then used in Tests A-G. Spraying a 200 ppm test suspension to the point of run-off on the test plants was the equivalent of a rate of 800 g/ha. The test suspension was sprayed to the point of run-off on wheat seedlings. The following day the seedlings were inoculated with a spore suspension of Puccinia recondita f sp. tritici (the causal agent of wheat leaf rust) and incubated in a saturated atmosphere at 20° C. for 24 h, and then moved to a growth chamber at 20° C. for 7 days, after which time disease ratings were visually made. Results for Tests A-G are given in Table A. In the Table, a rating of 100 indicates 100% disease control and a rating of 0 indicates no disease control (relative to the controls). A dash (-) indicates no test results. All results are for 200 ppm except where followed by an “*”, which indicates 40 ppm.

The values that follow come from patent US8921360B2, “Heterobicycle-substituted azolyl benzene fungicides” (priority 2009, dated 2014).

Consider `CC(=O)NCc1cc(-c2ccn(-c3ccc4c(c3)CCCO4)n2)ccc1Cl` [Compound 2, N-[[2-chloro-5-[1-(3,4-dihydro-2H-1-benzopyran-6-yl)-1H-pyrazol-3-yl]-phenyl]methyl]acetamide], for which the pest or weed control at 200 ppm came out at 88% in assay [1], 53% in assay [3], 84% in assay [4] and 100% in assay [5]. In addition, in assay [2] (40 ppm (value followed by *)), the pest or weed control at 40 ppm worked out at 97%.
On to `O=CNCc1cc(-c2ccn(-c3ccc4c(c3)CCCO4)n2)ccc1Cl` [Compound 3, N-[[2-chloro-5-[1-(3,4-dihydro-2H-1-benzopyran-6-yl)-1H-pyrazol-3-yl]-phenyl]methyl]formamide], for which the pest or weed control at 200 ppm in assay [1] was found to be 0%; in assay [2], 78%; in assay [3], 0%; in assay [4], 0%; in assay [5], 97%.
For `CNC(=O)NCc1cc(-c2ccn(-c3ccc4c(c3)CCCO4)n2)ccc1Cl` [Compound 4, N-[[2-chloro-5-[1-(3,4-dihydro-2H-1-benzopyran-6-yl)-1H-pyrazol-3-yl]-phenyl]methyl]-N′-methylurea], the pest or weed control at 200 ppm in assay [1] came out at 53%; in assay [2], 0%; in assay [3], 0%; in assay [4], 0%; in assay [5] it was 97%.
In the case of `COC(=O)NCc1cc(-n2ccc(-c3ccc4c(c3)CCCO4)n2)ccc1Cl` [Compound 5, methyl N-[[2-chloro-5-[3-(3,4-dihydro-2H-1-benzopyran-6-yl)-1H-pyrazol-1-yl]phenyl]methyl]carbamate], the pest or weed control at 200 ppm in assay [1] is 100%; in assay [2], 100%; in assay [3], 0%; in assay [4] it was 100%; in assay [5] it was 100%.
Turning to `COC(=O)NCc1cc(-n2ccc(-c3ccc4c(c3)OCO4)n2)ccc1Cl` [Compound 6, methyl N-[[5-[3-(1,3-benzodioxol-5-yl)-1H-pyrazol-1-yl]-2-chlorophenyl]-methyl]carbamate], the pest or weed control at 200 ppm in assay [1] stood at 100%; in assay [2], 99%; in assay [3], 95%; in assay [4], 100%; in assay [5], 100%.
As to `COC(=O)NCc1cc(-n2ccc(-c3ccc4c(c3)OCCO4)n2)ccc1Cl` [Compound 7, methyl N-[[2-chloro-5-[3-(2,3-dihydro-1,4-benzodioxin-6-yl)-1H-pyrazol-1-yl]-phenyl]methyl]carbamate], the pest or weed control at 200 ppm in assay [1] turned out to be 100%; in assay [2] it was 100%; in assay [3], 97%; in assay [4], 100%; in assay [5] it was 100%.
In the case of `CC(=O)NCc1cc(-n2ccc(-c3ccc4c(c3)CCCO4)n2)ccc1Cl` [Compound 8, N-[[2-chloro-5-[3-(3,4-dihydro-2H-1-benzopyran-6-yl)-1H-pyrazol-1-yl]phenyl]methyl]acetamide], the pest or weed control at 200 ppm is 26% in assay [1]; 98% in assay [2]; 91% in assay [3]; 0% in assay [4]; 100% in assay [5].
Taken in the same sequence, the figures for `CNC(=O)NCc1cc(-n2ccc(-c3ccc4c(c3)CCCO4)n2)ccc1Cl` [Compound 9, N-[[2-chloro-5-[3-(3,4-dihydro-2H-1-benzopyran-6-yl)-1H-pyrazol-1-yl]phenyl]methyl]-N′-methylurea] were 8%, 79%, 9%, 0% and 88%.
Regarding `COC(=O)NCc1cc(-n2ccc(-c3ccc4c(c3)CCCO4)n2)ccc1F` [Compound 11, methyl N-[[5-[3-(3,4-dihydro-2H-1-benzopyran-6-yl)-1H-pyrazol-1-yl]-2-fluorophenyl]methyl]carbamate], the pest or weed control at 200 ppm came to 100% in assay [1]; 100% in assay [2]; 40% in assay [3]; 100% in assay [4]; 100% in assay [5].
For the compound `COC(=O)NCc1cc(-c2ccn(-c3ccc4c(c3)CCCO4)n2)ccc1F` [Compound 12, methyl N-[[5-[1-(3,4-dihydro-2H-1-benzopyran-6-yl)-1H-pyrazol-3-yl]-2-fluorophenyl]methyl]carbamate], the pest or weed control at 200 ppm turned out to be 100% in assay [1]; 100% in assay [2]; 88% in assay [3]; 100% in assay [4]; 100% in assay [5].
In the case of `COC(=O)NCc1cc(-c2ccn(-c3ccc4c(c3)CCCO4)n2)ccc1C` [Compound 20, methyl N-[[5-[1-(3,4-dihydro-2H-1-benzopyran-6-yl)-1H-pyrazol-3-yl]-2-methylphenyl]methyl]carbamate], the pest or weed control at 200 ppm was 100% in assay [1]; 100% in assay [2]; 90% in assay [3]; 99% in assay [4]; 100% in assay [5].
